Test results as given in patent US20230331679A1, “NAPHTHALENE MONOIMIDE COMPOUNDS AND METHODS THEREOF” (JAWAHARLAL NEHRU CENTRE FOR ADVANCED SCIENTIFIC RESEARCH, priority 2020, published 2023).

Experiments:
α-Syn = α-Syn (Homo sapiens, UniProt P37840); experiment: ThT binding assay, α-Syn aggregation inhibition; assay type: biochemical
Text: Parkinson’s disease (PD) is a neuronal disorder, mainly affects the motor system. α-Syn is a presynaptic neuronal protein that is linked neuropathologically to PD plays a vital role in the pathogenesis in a number of ways. Self-aggregation of α-Syn to form fibrillar aggregates and these toxic species mediate disruption of cellular homeostasis and cause neuronal death. These toxic aggregates affect various intracellular targets, especially synaptic function. In this context, NMI compounds of the present disclosure were used to study the possible modulation of α-Syn aggregation. The effect of NMI compounds (TGR63 and TGR64) on α-syn (100 µM) aggregation inhibition was studied through ThT binding assay. Experiments were performed at stoichiometric ratios (α-Syn:inhibitor) of 1:1, 1:2, and 1:5 with the fixed concentration of α-Syn at 100 µM.

[1] = Octanol/water partition coefficient (LogP); assay type: physicochemical
Procedure: Pharmacokinetics of TGR63 in wild-type (WT) mice was performed to assess its in vivo efficacy. The lethal dose 50 (LD50) of TGR63 was determined in WT mice through intraperitoneal (IP) injection following the Organisation for Economic Cooperation and Development (OECD) guidelines. […] FIG. 7A illustrates the calculation of lethal dose 50% (LD50) of TGR63 through intraperitoneal administration and is represented as table of experimental details and the final observation was done on 14th day. FIG. 7B illustrates the mortality (%) plotted against TGR63 concentration and calculation of LD50. Twenty-five WT mice were segregated in five different groups (G1-5, N= 5 per group) and administered with varying doses of TGR63 (1.7, 5.5, 17.5 56.0 and 179.0 mg/kg body weight, respectively) through IP injection and their survival was monitored for 14 days. The serum stability and blood-brain barrier (BBB) crossing ability of TGR63 were assessed through matrix-assisted laser desorption ionization (MALDI) mass spectrometry analysis of blood and brain samples of vehicle and TGR63 treated mice. TGR63 and vehicle were administrated in WT mice and sacrificed after 1 and 24 h to collect the blood for MALDI mass analysis FIG. 8 depicts the MALDI mass analysis of vehicle (FIG. 8A) and TGR63 treated mice blood serum after 1 h (FIG. 8B) and 24 h (FIG. 8C) of administration. The presence of TGR63 in blood was confirmed from the mass analysis even after 24 h. […] TGR63 was incubated in PBS (10 mM, pH= 7.4) and blood serum in WT mice for different time intervals (0.5, 1, 2 and 6 h) at 37° C. to evaluate the serum stability under in vitro conditions. […] FIG. 9 depicts the Serum stability of TGR63 under in vitro conditions. TGR63 was incubated in PBS (10 mM, pH= 7.4) and blood serum (WT mouse) for different time (0.5, 1, 2 and 6 h) at 37° C. […] The partition coefficient (P), a valuable physical property was calculated to predict the BBB permeability. […] FIG. 10 depicts the calculation of LogP. […] The calculated positive logP value predicts the possible BBB crossing ability for TGR63. […]

Full length tau = biological target: T1, Full length tau (Homo sapiens, UniProt P10636); experiment: ThT fluorescence assay, inhibition of tau aggregation; assay type: biochemical; details: for ThT fluorescence signal compared with untreated controls (100%): tau 5 µM, heparin 1.25 µM, 72 h at 37° C.
T1 construct: Full length tau (5 µM) was incubated with TGR63
T1 sequence (P10636 1-441 isoform P10636-8): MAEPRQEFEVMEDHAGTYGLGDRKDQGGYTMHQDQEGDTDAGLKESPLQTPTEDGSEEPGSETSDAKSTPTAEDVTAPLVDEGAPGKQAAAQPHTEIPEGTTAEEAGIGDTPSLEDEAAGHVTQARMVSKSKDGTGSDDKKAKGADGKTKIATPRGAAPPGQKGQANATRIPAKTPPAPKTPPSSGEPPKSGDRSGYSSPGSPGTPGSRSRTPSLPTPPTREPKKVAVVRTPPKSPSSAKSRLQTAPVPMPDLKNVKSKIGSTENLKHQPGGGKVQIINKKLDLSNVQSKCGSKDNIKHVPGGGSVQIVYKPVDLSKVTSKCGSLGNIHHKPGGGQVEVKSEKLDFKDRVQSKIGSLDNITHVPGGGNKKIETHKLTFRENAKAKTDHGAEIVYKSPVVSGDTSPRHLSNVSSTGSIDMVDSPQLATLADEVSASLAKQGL
Text: Tau is a microtubule-associated proteins that interacts with tubulin and stimulates its assembly into microtubules. The extent of phosphorylation regulates the activity of tau protein and the hyperphosphorylation diminishes its physiological function leading to several neuronal disorders like AD and tauopathies. The self-aggregation of hyperphosphorylated tau form intracellular neurofibrillary tangles (NFTs) and paired helical filaments (PHFs) that impairs the axonal functions and degenerates neuronal cells. Considering the prominent role of tau in AD pathology, the self-aggregation and deposition of hyperphosphorylated tau became a potential target to tackle AD and related tauopathies. Effect of TGR63 on tau aggregation was assessed. Full length tau (5 µM) was incubated with TGR63 (5 and 25 µM) for 72 h at 37° C. in the presence of aggregation inducer (heparin; 1.25 µM). The extent of aggregation of incubated samples were assessed by ThT fluorescence (λex= 442 nm and λem=482 nm) assay. FIG. 25 depicts the inhibition of tau (5 µM) aggregation in presence of TGR63. As expected, the ThT fluorescence signal was increased by ~15 folds with compare to only ThT, which confirmed the formation of pathogenic tau aggregates.

SHSY5Y cells = experiment: Membrane toxicity modulation, immunocytochemistry in SHSY5Y cells; assay type: cell-based; details: Aβ42 pre-incubated 24 h with TGR63, 2 h treatment
Procedure: Inspiring from the above-mentioned studies, membrane toxicity modulation ability of TGR63 through immunocytochemistry in SHSY5Y cells was also investigated. The cells were cultured in 35 mm confocal dishes and treated individually with Aβ42 samples, pre-incubated for 24 h in the presence and absence of TGR63 for 2 h under cell growing conditions. Then the experimental cells were washed and fixed using 4% paraformaldehyde (PFA) to probe the Aβ42 fibrils with OC (1:250) antibody, followed by red fluorescent labeled (λex= 633 nm and λem= 650 nm) secondary antibody (Alexa 633-A21052, Thermo). Finally, unbound antibody was washed and 4′,6-diamidino-2-phenylindole (DAPI) was used to stain the nucleus before the confocal imaging. For DAPI staining, experimental cells were incubated with DAPI (500 nM) solution (PBS) for 10 min at room temperature. Then, the cells were washed with PBS three times and imaged under confocal fluorescence microscope (λex= 358 nm, […]). FIG. 5 depicts the images obtained by nuclear staining of SHSY5Y cells with DAPI(blue) and Aβ42 fibrils staining with OC antibody and red fluorescent labelled secondary antibody.

PC12 cells = experiment: Rescue of PC12 cells from Aβ42 toxicity (MTT cell viability assay); details: PC12 cells, Aβ42 20 µM + compound 40 µM, 24 h; Aβ42 alone 54%, untreated 100%
Procedure: A 96-well plate was used to culture the cells (15,000 per well) with RPMI media (10% fetal bovine serum (FBS), 5% horse serum (HS,), and 1% pen-strep (PS)) at 37° C. temperature in a 5% CO2 atmosphere. Then the media was exchanged with low serum (2% FBS) media and monomeric Aβ42 was added in the absence and presence of NMI compounds and incubated for 24 h.
The structure-activity relationship (SAR) of NMI compounds towards rescuing PC12 cells from Aβ toxicity was investigated. […] Each experiment was repeated three times (n = 3), and error bars represent the standard deviation (SD).
An Alzheimer’s disease-like environment was mimicked by exposing the cultured PC12 cells to 20 µM of Aβ42 fibrils, which formed cytotoxic aggregation species in the growth media.

## CN(C)c1ccc(C#Cc2ccc3c4c(cccc24)C(=O)N(CC[N+](C)(C)C)C3=O)cc1 [TGR63, 2-(6-((4-(dimethylamino)phenyl)ethynyl)-1,3-dioxo-1H-benzo[de]isoquinolin-2(3H)-yl)-N,N,N-trimethylethan-1-aminium]
α-Syn; α-Syn:inhibitor 1:1, α-Syn 100 µM
  decrease in the formation of α-Syn aggregates: ~ 54%
α-Syn; α-Syn:inhibitor 1:2, α-Syn 100 µM
  α-Syn aggregation decreased to: 65%
α-Syn; α-Syn:inhibitor 1:5, α-Syn 100 µM
  α-Syn aggregation decreased to: 93%
[1]; calculated from octanol and water layer concentrations
  logP: 0.1
[1]; octanol/water partition
  concentration in octanol layer: 21.82 µM
  concentration in water layer: 18.18 µM
Full length tau; TGR63 5 µM
  ThT fluorescence signal compared with untreated controls (100%): ~ 72%
Full length tau; TGR63 25 µM
  ThT fluorescence signal compared with untreated controls (100%): ~52%
Full length tau; tau:TGR63 1:1
  reduction of tau aggregates: ~ 28%
Full length tau; tau:TGR63 1:5
  reduction of tau aggregates: ~48%
SHSY5Y cells
  OC red fluorescence signal of Aβ42 fibrils on plasma membrane: lower red fluorescence signal on the plasma membrane
PC12 cells
  cell viability: 80%
